The source of these data is patent publication US20090023186A1, “USE OF VALPROIC ACID FOR ENHANCING PRODUCTION OF RECOMBINANT PROTEINS IN MAMMALIAN CELLS” (EXCELLGENE SA, priority 2007, published 2009).

The test system of this experiment is HEK293E cells. Briefly: Multiple VPA additions, IgG batch titer by ELISA (Example 3). It counts as cell-based, Human. Particulars: day 10 after transfection. As to the method: 10 million suspension-adapted HEK293E cells were resuspended in 0.5 ml of Ex-Cell 293 HEK 293 serum-free medium with 4 mmol/l L-glutamine (Cat. No. 14571C-[…]; Lot No. 6A0093; SAFC Biosciences, Lenexa, Kans., USA, “Ex-Cell” medium; note: “Ex-Cell” medium-as used herein-refers to a medium comprising 4 mmol/l L-glutamine) in a 50-ml filter tube each (TPP AG, Trasadingen, Switzerland; Cat. No. 87050, Lot 20050174). In a separate set, 10 million suspension-adapted CHO DG44 cells were resuspended in 0.5 ml of ProCHO5 serum-free medium with 4 mmol/[…] hypoxanthine and 0.194 g/l thymidine (BioWhittaker (Lonza), Belgium; Cat. No. BE12-[…]; Lot No. 7 MB0040; “ProCHO5” medium; note: “ProCHO5” medium-as used herein-refers to a medium comprising 4 mmol/[…] hypoxanthine and 0.194 g/l thymidine) in a 50-ml filter tube each (TPP AG, Trasadingen, Switzerland; Cat. No. 87050, Lot 20050174). Then 12.5 μg plasmid DNA at a concentration of 1 μg/μl was added in each tube with the following composition 50% (6.25 μg) p-LC (SEQ ID NO: 1) 50% (6.25 μg) p-HC (SEQ ID NO: 3). Plasmid p-LC comprises the genetic information for the production of the light chain of an IgG antibody, plasmid p-HC comprises the genetic information for the production of the heavy chain of an IgG antibody. The particular vector constructs used in the present invention can also be obtained from the inventors. The inventors can be contacted via e-mail at […]. […] In short, Goat anti-human kappa light chain IgG (Biosource) was used for coating the ELISA-plates, and with AP-conjugated goat anti-human gamma chain IgG (Biosource) the synthesized IgG1 was detected. […] Absorption was measured at 405 nm against 490 nm using a microplate reader (SPECTRAmaxTM340; Molecular Devices, Palo Alto, Calif., USA).
A general note: ELISA stands for enzyme-linked immunosorbent assay.

In the case of `CCCC(CCC)C(=O)O` [VPA, valproic acid], the “batch titers, direct addition versus slowly increasing concentration” value is given as “statistically not different”. This compound also returned a Batch titer (4 mmol/l VPA at day 0) of 193 mg/L. The compound also registered a Batch titer (escalating dosage, 1 to 4 mmol/l in 1 mmol/l increments every other day) of 182 mg/L.
